These results are taken from patent publication US20110177105A1, “Novel Selective Inhibitors of Ubiquitin Specific Protease 7, the Pharmaceutical Compositions Thereof and Their Therapeutic Applications” (priority 2010, published 2011).

The assay addresses USP7 (Homo sapiens, UniProt Q93009). Description: HA-Ub-VS labeling of active DUBs in HCT116 cell lysates. It is filed as biochemical. On the set-up: endogenous in cells; host or cells: HCT116 (inducible USP7 shRNA line) cell lysate. The note with it: NEM 5 mM. The source says: The C-terminally modified vinyl sulfone derivative of ubiquitin, UbVS, was clearly helpful for a direct visualization of active DUBs in cells. This tool, which binds covalently to the cysteine active site of deubiquitinating enzymes, was successfully applied to discover and characterize novel ubiquitin/ubiquitin-like proteases and to profile active deubiquitinating enzymes in normal, virus-infected, and malignant cells (Borodovsky et al., Chem Biol 2002, 9, 1149-1159, Hemelaar et al., Mol Cell Biol 2004, 24, 84-95, Ovaa et al., Proc Natl Acad Sci USA 2004 101, 2253-2258).
The HA-Ub-VS probe (Hemagglutin tag-Ubiquitin-Vinyl Sulfone) was used in this study to directly visualize the activity of all deubiquitinating enzymes from cell lysates. This tool was used to evaluate the activity/specificity of our small molecule compounds on USP7 relative to all deubiquitinating enzymes active in physiological conditions.
Inducible USP7 shRNA HCT116 cells (previously treated with or without Doxycycline (2 μg/ml) for 4 days) as well as HEK293 cells were harvested and lysed on ice with a non denaturating buffer containing Tris pH 7.4, 50 mM; NaCl, 150 mM; MgCl2, 5 mM; EDTA, 0.5 mM; DTT, 2 mM; ATP, 2 mM; NP40, 0.5% and glycerol, 10%. Samples were incubated at 4° C. for 1 hour and clarified. Proteins were then quantified by Bradford method (Bio-Rad Protein Assay). 25 μg of proteins from native cell lysates were treated with compounds of examples 14 and 5 (from 100 μM to 3 μM) or with NEM (N-Ethylmaleimide, a thiol-reactive compound, 5 mM) for 2 hours at room temperature. The ubiquitin labeling reaction was initiated by the addition of HA-Ub-VS (8 μg/ml) in labeling buffer (Tris pH 7.6, 50 mM; MgCl2, 5 mM; EDTA, 0.5 mM; DTT, 2 mM; ATP, 2 mM; sucrose, 250 mM) and incubated at room temperature for 30 min. Samples were next heated at 100° C. for 10 minutes and briefly sonicated. They were resolved by SDS-polyacrylamide gel electrophoresis (SDS-PAGE), transferred to a nitrocellulose membrane and probed with antibodies against USP7 (Bethyl Lab, A300-034A), HA (BabCO, MMS-101P), and actin (Sigma, A2066). Horseradish peroxidase (HRP)-conjugated anti-mouse (Jackson Laboratories, 115-035-003) or HRP-conjugated anti-rabbit (Cell Signaling, 7074) antibodies were used as secondary antibodies. Signals were detected by enhanced chemiluminescence (ECL; Amersham) according to the reagent manufacturer's instructions.

Each structure is given as a SMILES string.

Chain of USP7 (Q93009 whole entry): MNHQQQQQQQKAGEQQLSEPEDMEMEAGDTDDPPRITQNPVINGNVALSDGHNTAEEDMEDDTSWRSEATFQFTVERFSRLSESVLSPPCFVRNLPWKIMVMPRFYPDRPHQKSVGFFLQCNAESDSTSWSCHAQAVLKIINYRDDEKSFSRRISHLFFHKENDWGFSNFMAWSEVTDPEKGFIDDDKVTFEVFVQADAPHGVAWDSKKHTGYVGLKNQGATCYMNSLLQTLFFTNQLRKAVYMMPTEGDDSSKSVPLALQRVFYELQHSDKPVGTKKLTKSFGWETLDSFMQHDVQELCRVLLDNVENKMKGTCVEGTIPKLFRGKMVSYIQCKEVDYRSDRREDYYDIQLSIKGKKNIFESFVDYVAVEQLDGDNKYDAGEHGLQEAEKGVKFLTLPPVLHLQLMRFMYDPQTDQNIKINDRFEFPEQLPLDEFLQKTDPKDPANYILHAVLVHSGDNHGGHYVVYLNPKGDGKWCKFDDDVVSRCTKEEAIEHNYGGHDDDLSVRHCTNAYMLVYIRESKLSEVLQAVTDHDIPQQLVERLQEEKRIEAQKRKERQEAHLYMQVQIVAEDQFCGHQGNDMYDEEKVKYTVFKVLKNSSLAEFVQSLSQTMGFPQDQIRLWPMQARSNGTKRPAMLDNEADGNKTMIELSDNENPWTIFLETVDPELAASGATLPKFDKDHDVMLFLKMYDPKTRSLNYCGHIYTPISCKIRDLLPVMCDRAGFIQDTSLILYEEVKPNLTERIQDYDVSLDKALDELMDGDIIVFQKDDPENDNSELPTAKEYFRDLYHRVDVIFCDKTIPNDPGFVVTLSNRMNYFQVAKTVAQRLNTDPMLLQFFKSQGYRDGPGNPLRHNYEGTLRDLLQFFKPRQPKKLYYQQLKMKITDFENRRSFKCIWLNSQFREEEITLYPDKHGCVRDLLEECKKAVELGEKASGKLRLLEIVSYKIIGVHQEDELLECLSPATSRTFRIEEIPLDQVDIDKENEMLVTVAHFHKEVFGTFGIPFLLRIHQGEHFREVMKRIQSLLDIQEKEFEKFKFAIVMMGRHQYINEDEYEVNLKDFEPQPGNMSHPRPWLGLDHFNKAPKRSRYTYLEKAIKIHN

As to `CCN1C(=O)C=CC1=O` [NEM, N-Ethylmaleimide, reference compound], the “HA-Ub-VS labeling of active DUBs” value is recorded as “inhibited”.
